Test results from publication PMC5054432 (Scientific Reports, 2016).
Several values for one entry are separate records, joined by “and”; a condition that tells them apart may be missing. Equal entries are not always repeated.

Assays:
[1] = target: T1, GluN1/GluN2B-F114AzF receptors (Rattus norvegicus (GluN1-1a); Mus musculus (GluN2B), UniProt P35439+Q01097); assay: MK-801 inhibition kinetics (index of channel open probability), TEVC in oocytes; assay type: cell-based, rat GluN1-1a, mouse GluN2B; parameters: expressed in transfected cells; host or cells: Xenopus laevis oocytes co-injected with GluN1, GluN2B amber mutant, Yam suppressor tRNA and AzF-RS, incubated with 1 mM AzF; details: 50 nM MK-801, normalized to mean τon of wt
Method: (§1) To analyze the gating property change, we assessed channel maximal open probability (Po) using MK-801, a specific open-pore blocker of NMDARs[25]. Because the rate at which MK-801 inhibits the macroscopic NMDAR responses is proportional to the level of channel activity (i.e. Po), this MK-801 assay is classically used to index NMDAR channel activity.
(§2) For all experiments, the standard external solutions contained: 100 mM NaCl, […] BaCl2, and 5 mM HEPES, pH adjusted to 7.3 with KOH. […] Currents were recorded and measured at a holding potential of −60 mV at room temperature.
(§3) The measurements at 30 μM were corrected by multiply with a correcting value to remove the pore blocking effect at −60 mV[49]. Zinc was prepared at 100 mM ZnCl2 stock (in 1% HCl). In all zero-Zn^2+ control solutions, diethylenetriamine-pentaacetic acid (DTPA, 10 μM) was added to chelate trace Zn^2+ and other heavy metals. Spermine potentiation was analyzed as described earlier. Solutions of 200 μM spermine (Sigma-Aldrich) were made by directly diluting the powder into the standard agonist solution. Spermine sensitivity was assessed at pH 6.5 in order to maximize the spermine-induced potentiation. Experiments with MK-801 were performed as described previously. […] Each τon was then normalized to the mean τon of wt receptors measured the same day. […]

[2] = target: T2, wt GluN1/GluN2B receptors (UniProt P35439+Q01097); assay: as above; assay type: cell-based, rat GluN1-1a, mouse GluN2B; details: 50 nM MK-801, normalized to mean τon of wt
Method: as §1, §2, §3

[3] = target: T1, GluN1/GluN2B-F114AzF receptors; assay: UV-induced current potentiation in the presence of allosteric modulators, TEVC in oocytes; assay type: cell-based, rat GluN1-1a, mouse GluN2B; parameters: expressed in transfected cells; host or cells: Xenopus laevis oocytes co-injected with GluN1, GluN2B amber mutant, Yam suppressor tRNA and AzF-RS, incubated with 1 mM AzF
Source text: To evaluate whether AzF photo-activation in GluN2B produces functional changes, we applied a time-resolved assay[10] by combining online application of UV light and simultaneously recording of agonist-induced currents using TEVC. Current after UV illumination (Iuv) were compared to currents before UV illumination (Io) and yielded the relative current changes (Iuv/Io).
To understand how the NTD dimer interfacial contact influences allosteric modulation, we have quantified UV-induced potentiation in the presence of different modulators, including a GluN2B specific positive allosteric modulator spermine.
as §2
(§4) The measurements at 30 μM were corrected by multiply with a correcting value to remove the pore blocking effect at −60 mV[49]. Zinc was prepared at 100 mM ZnCl2 stock (in 1% HCl). In all zero-Zn^2+ control solutions, diethylenetriamine-pentaacetic acid (DTPA, 10 μM) was added to chelate trace Zn^2+ and other heavy metals. Spermine potentiation was analyzed as described earlier. Solutions of 200 μM spermine (Sigma-Aldrich) were made by directly diluting the powder into the standard agonist solution. Spermine sensitivity was assessed at pH 6.5 in order to maximize the spermine-induced potentiation. Experiments with MK-801 were performed as described previously. MK-801 solutions (10–50 nM) were prepared by dilution of stock solution (50 μM) into agonist containing solution[4]. MK-801 time constants of inhibition (τon) were obtained by fitting currents with a single-exponential component to a time window corresponding to 10–90% of maximum inhibition. Each τon was then normalized to the mean τon of wt receptors measured the same day.
(§5) For all functional recordings in Xenopus oocytes, online UV light treatment with PE-2 light source (CoolLED) using a 365 nm filter channeled through optical fiber was directly applied to the dark hemisphere of the oocytes in the recording chamber. […] For measurements in presence of agonists and allosteric modulators, the UV application duration was ~3 min. In the absence of agonist, the UV application duration was ~5 min.

[4] = target: T2, wt GluN1/GluN2B receptors; assay: Ifenprodil and Zn2+ inhibition dose-response, TEVC in Xenopus laevis oocytes; assay type: cell-based, rat GluN1-1a, mouse GluN2B
Method: (§6) Oocytes were prepared and injected as described previously. Recombinant NMDARs were expressed in Xenopus laevis oocytes after nuclear injection of 36 nl of a mixture cDNAs encoding various GluN1 and GluN2 subunits (ratio 1:1, 10 ng/μl for GluN2A and 30 ng/μl for GluN2B). For Uaa incorporation, oocytes were co-injected with a 36 nl mixture of cDNAs containing GluN1, GluN2, Yam, and aaRS as follows, unless otherwise indicated in the text: GluN1-wt (60 ng/μl), GluN2A-F115AzF (60 ng/μl), Yam (5 ng/μl), AzF-RS (2.5 ng/μl); or, GluN1-wt (80 ng/μl), GluN2B-F114AzF (80 ng/μl), Yam (10 ng/μl), AzF-RS (5 ng/μl). After injection, oocytes were incubated at 19 °C in a Barth solution (88 mM NaCl, 1 mM KCl, 0.33 mM Ca(NO3)2, 0.41 mM CaCl2, 0.82 mM MgSO4, 2.4 mM NaHCO3, 10 mM HEPES, pH adjusted to 7.6 with NaOH) supplemented with gentamicin sulfate ([…]) and D-APV (50 μM). AzF was dissolved with sonication in Barth solution (stock solution at 10 mM), and diluted (1 mM) for oocytes incubation.
as §2, §4, §5

[5] = target: T1, GluN1/GluN2B-F114AzF receptors; assay: as above; assay type: cell-based; details: for IC50 / Zn2+ Hill coefficient nH: F114AzF mutant
Method: as §6, §2, §4, §5

[6] = target: T1, GluN1/GluN2B-F114AzF receptors; details: 200 μM spermine, pH 6.5, without UV
Method: For all experiments, the standard external solutions contained: 100 mM NaCl, 300 mM BaCl2, and 5 mM HEPES, pH adjusted to 7.3 with KOH. […] Currents were recorded and measured at a holding potential of −60 mV at room temperature.
The measurements at 30 μM were corrected by multiply with a correcting value to remove the pore blocking effect at −60 mV[49]. Zinc was prepared at 100 mM ZnCl2 stock (in 1% HCl). In all zero-Zn^2+ control solutions, diethylenetriamine-pentaacetic acid (DTPA, 10 μM) was added to chelate trace Zn^2+ and other heavy metals[25]. […] Experiments with MK-801 were performed as described previously. MK-801 solutions (10–50 nM) were prepared by dilution of stock solution (50 μM) into agonist containing solution[4]. MK-801 time constants of inhibition (τon) were obtained by fitting currents with a single-exponential component to a time window corresponding to 10–90% of maximum inhibition. Each τon was then normalized to the mean τon of wt receptors measured the same day.

wild-type GluN1 (rat) = wild-type GluN1 (rat) (UniProt P35439)

T1 sequence (Q01097 27-1482, other chains not shown): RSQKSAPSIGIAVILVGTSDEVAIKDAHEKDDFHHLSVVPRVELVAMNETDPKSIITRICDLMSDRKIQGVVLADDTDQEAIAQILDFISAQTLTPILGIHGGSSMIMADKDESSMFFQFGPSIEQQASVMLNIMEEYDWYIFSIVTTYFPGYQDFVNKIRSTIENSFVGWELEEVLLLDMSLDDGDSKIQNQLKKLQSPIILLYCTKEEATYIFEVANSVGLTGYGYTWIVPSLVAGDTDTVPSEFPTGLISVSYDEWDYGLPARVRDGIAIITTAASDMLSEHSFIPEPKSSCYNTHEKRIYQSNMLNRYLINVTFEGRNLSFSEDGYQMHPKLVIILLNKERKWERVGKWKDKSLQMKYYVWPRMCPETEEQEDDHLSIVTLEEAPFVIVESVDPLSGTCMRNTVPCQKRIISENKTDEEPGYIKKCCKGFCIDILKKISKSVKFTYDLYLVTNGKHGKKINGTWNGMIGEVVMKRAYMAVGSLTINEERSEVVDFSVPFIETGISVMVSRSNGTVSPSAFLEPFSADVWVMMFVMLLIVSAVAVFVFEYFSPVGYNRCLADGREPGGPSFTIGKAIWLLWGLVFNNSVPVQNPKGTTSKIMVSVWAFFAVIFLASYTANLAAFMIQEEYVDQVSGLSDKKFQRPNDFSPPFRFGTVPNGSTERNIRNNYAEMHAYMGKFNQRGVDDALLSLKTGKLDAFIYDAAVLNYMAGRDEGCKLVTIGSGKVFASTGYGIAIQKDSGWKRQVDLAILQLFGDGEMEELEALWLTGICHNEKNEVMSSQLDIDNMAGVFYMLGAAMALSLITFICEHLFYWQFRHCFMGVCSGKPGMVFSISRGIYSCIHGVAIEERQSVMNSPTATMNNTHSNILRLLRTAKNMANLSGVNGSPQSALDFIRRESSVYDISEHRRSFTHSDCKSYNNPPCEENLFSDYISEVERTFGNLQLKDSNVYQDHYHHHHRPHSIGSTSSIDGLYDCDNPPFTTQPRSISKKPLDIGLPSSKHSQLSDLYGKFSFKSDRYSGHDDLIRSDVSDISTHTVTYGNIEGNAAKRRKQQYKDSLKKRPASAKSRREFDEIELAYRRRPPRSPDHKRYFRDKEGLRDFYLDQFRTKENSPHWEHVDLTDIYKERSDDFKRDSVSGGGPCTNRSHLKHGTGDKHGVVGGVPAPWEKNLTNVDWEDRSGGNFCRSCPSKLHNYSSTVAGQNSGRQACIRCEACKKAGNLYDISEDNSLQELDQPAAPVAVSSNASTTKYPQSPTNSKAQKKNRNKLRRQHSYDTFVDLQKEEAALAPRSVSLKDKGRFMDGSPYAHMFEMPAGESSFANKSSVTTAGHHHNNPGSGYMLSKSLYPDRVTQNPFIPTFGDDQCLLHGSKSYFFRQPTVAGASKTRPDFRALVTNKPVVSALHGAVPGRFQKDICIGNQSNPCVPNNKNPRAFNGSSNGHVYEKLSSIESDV
T2 sequence (Q01097 27-1482, other chains not shown): as above

Question: With `C[C@]12N[C@H](Cc3ccccc31)c1ccccc12` [MK-801, (+)-MK-801] as the molecule, how does the “Relative MK-801 τon” value ([1]; F114AzF mutant with UV) read?
Answer: 0.80 ± 0.07

Question: What about the “Relative MK-801 τon” value ([1]; F114AzF mutant without UV) of the same molecule?
Answer: 1.81 ± 0.47

Question: And the “Relative MK-801 τon” value ([2]; wild-type with UV)?
Answer: 0.90 ± 0.06

Question: And the “Relative MK-801 τon” value ([2]; wild-type without UV)?
Answer: 1.00

Question: `[Cl-].[Cl-].[Zn+2]` [Zn^2+, ZnCl2] was tested. Which “Relative current (I+uv/I0) after wash-off of modulator” value ([3]; 10 μM Zn2+ with co-agonists, +UV (~3 min, 365 nm)) did it give?
Answer: 1.40 ± 0.43

Question: And the “Relative current (I/I0) after wash-off of modulator” value ([3]; 10 μM Zn2+ with co-agonists, -UV)?
Answer: 0.92 ± 0.29

Question: And the IC50 ([4]; after UV)?
Answer: 720 ± 120 nM

Question: And the “Zn2+ Hill coefficient nH” value ([4]; after UV)?
Answer: 0.78

Question: What about the IC50 ([4]; before UV) of the same molecule?
Answer: 580 ± 130 nM

Question: What about the “Zn2+ Hill coefficient nH” value ([4]; before UV) of the same molecule?
Answer: 0.59

Question: And the “Maximal inhibition (%)” value ([5]; 0.1uM inhibitor, +UV)?
Answer: 16 ± 7%

Question: What about the “Maximal inhibition (%)” value ([5]; 0.1uM inhibitor, -UV) of the same molecule?
Answer: 25 ± 8%

Question: What about the “Maximal inhibition (%)” value ([5]; 1uM inhibitor, +UV) of the same molecule?
Answer: 35 ± 4%

Question: What about the “Maximal inhibition (%)” value ([5]; 1uM inhibitor, -UV) of the same molecule?
Answer: 49 ± 11%

Question: What about the “Maximal inhibition (%)” value ([5]; 10uM inhibitor, +UV) of the same molecule?
Answer: 83 ± 1%

Question: And the “Maximal inhibition (%)” value ([5]; 10uM inhibitor, -UV)?
Answer: 87 ± 4%

Question: What about the “Change in Zn2+ maximal inhibition” value ([5]; F114AzF mutant before and after UV versus wt) of the same molecule?
Answer: no change

Question: What about the IC50 ([5]; after UV) of the same molecule?
Answer: 1720 ± 600 nM

Question: And the “Zn2+ Hill coefficient nH” value ([5]; after UV)?
Answer: 0.77

Question: What about the IC50 ([5]; before UV) of the same molecule?
Answer: 780 ± 250 nM

Question: What about the “Zn2+ Hill coefficient nH” value ([5]; before UV) of the same molecule?
Answer: 0.62

Question: For `CC(C(O)c1ccc(O)cc1)N1CCC(Cc2ccccc2)CC1` (centres unmarked) [ifenprodil], which “Effect on UV potentiation” value ([3]; in the presence of ifenprodil) is on record?
Answer: completely abolished

Question: And the “Ifenprodil Hill coefficient nH” value [4]?
Answer: 1.14

Question: And the Ifenprodil maximal inhibition [5]?
Answer: 77% and 67%

Question: What about the “Maximal inhibition (%)” value ([5]; 0.1 µM) of the same molecule?
Answer: 16 ± 3% and 9 ± 4 %

Question: What about the “Maximal inhibition (%)” value ([5]; 1 µM) of the same molecule?
Answer: 54 ± 4% and 35 ± 4 %

Question: What about the “Maximal inhibition (%)” value ([5]; 10 µM) of the same molecule?
Answer: 77 ± 3% and 55 ± 3 %

Question: For `NCCCNCCCCNCCCN` [spermine], which “Spermine potentiation of receptor activation” value [6] is on record?
Answer: 4.6 fold

Question: And the “Relative current (I+uv/I0)” value ([3]; 200 μM spermine, pH 6.5, +UV (~3 min, 365 nm))?
Answer: 2.80 ± 0.64

Question: What about the “Relative current (I/I0)” value ([3]; 200 μM spermine, pH 6.5, -UV) of the same molecule?
Answer: 0.85 ± 0.10

Question: What about the “τon of UV induced additional potentiation” value ([3]; in the presence of 200 μM spermine, pH 6.5) of the same molecule?
Answer: 50.8 s

Question: Which relative current Iuv/Io after UV illumination of maximally activated receptors (TEVC in oocytes, UV-induced potentiation) (wild-type GluN1 (rat)) does the source give for “GluN2B-F114AzF (from UniProt Q01097 27-1482) (receptor)” here?
Answer: 1.97
